Measured values published in patent US11382956B2, “Amylin analogues” (Zealand Pharma A/S, priority 2016, dated 2022).
Numbered stars: 1 amine (or outer) side, 2 acyl side, 3 side chain; on linkers, the order of the positions; unused ones are H or OH. Bridge positions count the residues as written; N and C are the ends. Square brackets hold non-standard residues; d marks the D form. Peptide text beside a SMILES is read from it. * marks the point of attachment. C20 diacid = O=C(O)CCCCCCCCCCCCCCCCCCC(=O)*; γGlu = O=C(O)[C@H](CCC(=O)[*:2])N[*:1]; Hyp = O=C(O)[C@@H]1C[C@@H](O)CN1; NMeI = CC[C@H](C)[C@H](NC)C(=O)O; Aad = N[C@@H](CCCC(=O)O)C(=O)O; Sar = CNCC(=O)O

Tests used:
[1] = target: T1, recombinant human calcitonin receptor (hCT-R) (Homo sapiens, UniProt P30988); test: hCT-R cAMP assay (AlphaScreen) in 1321N1 cells; type: cell-based; conditions: cAMP formation, 45 min stimulation
T1 construct: host or cells: human astrocytoma cell line 1321N1
T1 sequence (P30988 25-474): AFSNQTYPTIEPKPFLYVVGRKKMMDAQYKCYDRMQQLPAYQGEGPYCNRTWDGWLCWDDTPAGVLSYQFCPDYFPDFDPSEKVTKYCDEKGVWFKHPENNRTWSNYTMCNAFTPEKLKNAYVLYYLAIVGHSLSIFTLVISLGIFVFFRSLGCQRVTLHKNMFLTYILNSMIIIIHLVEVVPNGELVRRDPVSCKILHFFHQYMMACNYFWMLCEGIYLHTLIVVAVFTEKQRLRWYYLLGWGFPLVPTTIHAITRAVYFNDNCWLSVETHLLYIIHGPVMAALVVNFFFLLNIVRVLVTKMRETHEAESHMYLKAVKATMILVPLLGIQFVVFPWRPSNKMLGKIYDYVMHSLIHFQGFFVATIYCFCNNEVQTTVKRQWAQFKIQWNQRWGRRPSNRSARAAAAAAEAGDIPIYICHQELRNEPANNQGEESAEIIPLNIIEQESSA
How it was run: (§1)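 1321N1 astrocytoma cells expressing recombinant human calcitonin receptor alone or with RAMP3 (AMY3) stimulated 45 min at room temperature with peptide in IBMX-containing buffer. cAMP quantified by AlphaScreen after 1 h bead incubation; EC50 fitted from at least 7 concentrations.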

[2] = Assessment of chemical stability in 40 mM buffers at 40° C. (RP-HPLC); type: physicochemical; conditions: 1 mg/mL; for % degradation after 72 h at 40° C. pH4 acetate: acetate buffer pH 4, 72 h; for % degradation after 72 h at 40° C. pH6 phosphate: phosphate buffer pH 6, 72 h; for % degradation after 72 h at 40° C. pH7 phosphate: phosphate buffer pH 7, 72 h
How it was run: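 Peptides at 1 mg/mL in 40 mM acetate pH 4 or phosphate pH 6 and 7 were held at 40° C for 3 and 14 days. Main-peak area-% by C8 RP-HPLC, UV 220 nm; % degradation = change in main-peak area-% versus t=0.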

[3] = Effect on acute food intake and body weight in normal Sprague Dawley rats; type: in vivo, Sprague Dawley (SD) rats; conditions: Dose: 30 nmol/kg sc, vehicle-corrected
From the text: Sprague Dawley (SD) rats were obtained from Janvier Labs, France. The animals arrived at least 14 days before the study start to allow acclimatization to experimental conditions. From arrival and throughout the study, the rats were housed in groups of 2 to 4 (n=2-4) in a light-, temperature- and humidity-controlled room. Animals had access ad libitum to food (KLIBA 3430, Provimi Kliba AG, Switzerland) and water (domestic quality tap water) during the entire study. Per group 6-8 rats were included. A vehicle group and positive control group were included in each set of tests. […] Dosing volume was 2 ml/kg. Food intake was recorded online using an automated food intake system (HM02, MBRose, Denmark) for 4 days or manually at 0 h for a predose and then 24, 48, 72 and 96 h post dosing. Body weight was measured daily.
Statistical analyses were performed using GraphPad™ Prism version 7. The measured parameters were compared using two-way ANOVA followed by Dunnett's multiple comparison tests. Differences were considered statistically significant at p<0.05.

[4] = target: T2, recombinant human amylin 3 receptor (hAMYR3) (Homo sapiens, UniProt O60896+P30988); test: hAMYR3 cAMP assay (AlphaScreen) in 1321N1 cells; type: cell-based; conditions: cAMP formation, 45 min stimulation
T2 construct: host or cells: human astrocytoma cell line 1321N1
T2 sequence (P30988 25-474): T1 sequence (P30988 25-474)
T2 sequence (O60896 24-148 partner): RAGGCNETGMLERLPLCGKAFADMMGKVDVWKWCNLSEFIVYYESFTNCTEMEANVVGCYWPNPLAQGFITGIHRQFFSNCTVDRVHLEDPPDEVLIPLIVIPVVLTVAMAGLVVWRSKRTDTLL
How it was run: as §1

[5] = Assessment of physical stability: fibril formation by Thioflavin T fluorescence; type: physicochemical; parameters: key: FND = fibrillation not detected; FD = fibrillation detected; conditions: 1 mg/mL peptide; for Fibrillation (in buffer) pH4 acetate: 50 mM acetate buffer pH 4.0, 96 hours at 40° C.; for Fibrillation (in buffer) pH7 histidine: 50 mM histidine buffer pH 7.0, 96 hours at 40° C.; for Fibrillation (in buffer) pH7 phosphate: 50 mM phosphate buffer pH 7.0, 96 hours at 40° C.
How it was run: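 Test peptide at 1 mg/mL with 40 μM ThT in 50 mM phosphate pH 7.0, 50 mM histidine pH 7.0, or 50 mM acetate pH 4.0, in triplicate. Fluorescence read every 10 min after 300 s agitation for 96 hours at 40° C; significant intensity rise scored as fibrillation detected (FD).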

| EC50 [1] [nM] | % degradation after 14 days at 40° C. pH6 phosphate ([2]; phosphate buffer pH 6, 14 days) [%] | EC50 [4] [nM] | Fibrillation (in buffer) pH4 acetate [5] | Fibrillation (in buffer) pH7 histidine [5] | Fibrillation (in buffer) pH7 phosphate [5] | % degradation after 72 h at 40° C. pH4 acetate [2] [%] | % degradation after 72 h at 40° C. pH6 phosphate [2] [%] | % degradation after 72 h at 40° C. pH7 phosphate [2] [%] | SMILES | Body weight reduction in % at 48 h [3] [%] | Food intake reduction in % at 48 h [3] [%] |
| --- | --- | --- | --- | --- | --- | --- | --- | --- | --- | --- | --- |
| 0.043 | <1 | 0.035 | – | – | – | – | – | – | CC[C@H](C)[C@@H](C(=O)N[C@@H](CC(C)C)C(=O)N[C@@H](CO)C(=O)N[C@@H](CO)C(=O)N[C@H](C(=O)N[C@@H](CCC(=O)O)C(=O)N[C@H](C(=O)NCC(=O)N[C@@H](CO)C(=O)N[C@@H](CC(N)=O)C(=O)N[C@H](C(=O)N1C[C@H](O)C[C@H]1C(N)=O)[C@@H](C)O)C(C)C)[C@@H](C)O)N(C)C(=O)[C@H](C)NC(=O)CN(C)C(=O)[C@H](Cc1ccccc1)NC(=O)[C@H](CO)NC(=O)[C@H](CO)NC(=O)[C@H](CCCNC(=N)N)NC(=O)[C@H](CCC(N)=O)NC(=O)[C@H](CC(C)C)NC(=O)[C@H](Cc1ccccc1)NC(=O)[C@H](Cc1c[nH]cn1)NC(=O)[C@H](C)NC(=O)[C@H](CC(C)C)NC(=O)[C@H](CCCNC(=N)N)NC(=O)[C@H](CCC(N)=O)NC(=O)[C@@H](NC(=O)[C@H](C)NC(=O)[C@@H]1CCCCNC(=O)C[C@H](NC(=O)[C@H](CCCNC(=N)N)NC(=O)CC[C@H](NC(=O)CCCCCCCCCCCCCCCCCCC(=O)O)C(=O)O)C(=O)NCC(=O)N[C@@H]([C@@H](C)O)C(=O)N[C@@H](C)C(=O)N[C@@H]([C@@H](C)O)C(=O)N1)[C@@H](C)O [Compound 16, [19CD]-isoGlu-RD()GTATK()ATQRLAHFLQRSSF-Gly(Me)-A-Ile(Me)-LSSTEVGSNT-Hyp-NH2] ({C20 diacid-γGlu}-RDGTATKATQRLAHFLQRSSF[Sar]A[NMeI]LSSTEVGSNT[Hyp]-NH2; lactam 2-7) | 7.4 | 66 |
| 0.056 | – | 0.017 | FND | FD | FD | <1 | <1 | <1 | CC[C@H](C)[C@@H](C(=O)N1CCC[C@H]1C(=O)N[C@@H](CO)C(=O)N[C@@H](CO)C(=O)N[C@H](C(=O)N[C@@H](CCC(=O)O)C(=O)N[C@H](C(=O)NCC(=O)N[C@@H](CO)C(=O)N[C@@H](CC(N)=O)C(=O)N[C@H](C(=O)N1C[C@H](O)C[C@H]1C(N)=O)[C@@H](C)O)C(C)C)[C@@H](C)O)N(C)C(=O)[C@H](C)NC(=O)CN(C)C(=O)[C@H](Cc1ccccc1)NC(=O)[C@H](CO)NC(=O)[C@H](CO)NC(=O)[C@H](CCCNC(=N)N)NC(=O)[C@H](CCC(N)=O)NC(=O)[C@H](CC(C)C)NC(=O)[C@H](Cc1ccccc1)NC(=O)[C@H](Cc1c[nH]cn1)NC(=O)[C@H](C)NC(=O)[C@H](CC(C)C)NC(=O)[C@H](CCCNC(=N)N)NC(=O)[C@H](CCC(N)=O)NC(=O)[C@@H](NC(=O)[C@H](C)NC(=O)[C@@H]1CCCCNC(=O)C[C@H](NC(=O)[C@H](CCCNC(=N)N)NC(=O)CC[C@H](NC(=O)CCCCCCCCCCCCCCCCCCC(=O)O)C(=O)O)C(=O)NCC(=O)N[C@@H]([C@@H](C)O)C(=O)N[C@@H](C)C(=O)N[C@@H]([C@@H](C)O)C(=O)N1)[C@@H](C)O [Compound 15, [19CD]-isoGlu-RD()GTATK()ATQRLAHFLQRSSF-Gly(Me)-A-Ile(Me)-PSSTEVGSNT-Hyp-NH2] ({C20 diacid-γGlu}-RDGTATKATQRLAHFLQRSSF[Sar]A[NMeI]PSSTEVGSNT[Hyp]-NH2; lactam 2-7) | 7.7 | 71 |
| 0.094 | – | 0.024 | FD | FND | FND | <1 | <1 | <1 | CC[C@H](C)[C@@H](C(=O)N[C@@H](CC(C)C)C(=O)N[C@@H](CO)C(=O)N[C@@H](CO)C(=O)N[C@H](C(=O)N[C@@H](CCC(=O)O)C(=O)N[C@H](C(=O)NCC(=O)N[C@@H](CO)C(=O)N[C@@H](CC(N)=O)C(=O)N[C@H](C(=O)N1C[C@H](O)C[C@H]1C(N)=O)[C@@H](C)O)C(C)C)[C@@H](C)O)N(C)C(=O)[C@H](C)NC(=O)CN(C)C(=O)[C@H](Cc1ccccc1)NC(=O)[C@H](CO)NC(=O)[C@H](CO)NC(=O)[C@H](CCCNC(=N)N)NC(=O)[C@H](CCC(N)=O)NC(=O)[C@H](CC(C)C)NC(=O)[C@H](Cc1ccccc1)NC(=O)[C@H](CCCC(=O)O)NC(=O)[C@H](C)NC(=O)[C@H](CC(C)C)NC(=O)[C@H](CCCNC(=N)N)NC(=O)[C@H](CCC(N)=O)NC(=O)[C@@H](NC(=O)[C@H](C)NC(=O)[C@@H]1CCCCNC(=O)C[C@H](NC(=O)[C@H](CCCCN)NC(=O)CC[C@H](NC(=O)CCCCCCCCCCCCCCCCCCC(=O)O)C(=O)O)C(=O)NCC(=O)N[C@@H]([C@@H](C)O)C(=O)N[C@@H](C)C(=O)N[C@@H]([C@@H](C)O)C(=O)N1)[C@@H](C)O [Compound 39, [19CD]-isoGlu-KD()GTATK()ATQRLA-Aad-FLQRSSF-Gly(Me)-Alle(Me)-LSSTEVGSNTHyp-NH2] ({C20 diacid-γGlu}-KDGTATKATQRLA[Aad]FLQRSSF[Sar]A[NMeI]LSSTEVGSNT[Hyp]-NH2; lactam 2-7) | 9.2 | 76 |
| 0.232 | – | 0.122 | FD | FND | FND | – | – | – | CC[C@H](C)[C@@H](C(=O)N1CCC[C@H]1C(=O)N[C@@H](CO)C(=O)N[C@@H](CO)C(=O)N[C@H](C(=O)N[C@@H](CCC(=O)O)C(=O)N[C@H](C(=O)NCC(=O)N[C@@H](CO)C(=O)N[C@@H](CC(N)=O)C(=O)N[C@H](C(=O)N1C[C@H](O)C[C@H]1C(N)=O)[C@@H](C)O)C(C)C)[C@@H](C)O)N(C)C(=O)[C@H](C)NC(=O)CN(C)C(=O)[C@H](Cc1ccccc1)NC(=O)[C@H](CO)NC(=O)[C@H](CO)NC(=O)[C@H](CCCNC(=N)N)NC(=O)[C@H](CCC(N)=O)NC(=O)[C@H](CC(C)C)NC(=O)[C@H](Cc1ccccc1)NC(=O)[C@H](CCCC(=O)O)NC(=O)[C@H](C)NC(=O)[C@H](CC(C)C)NC(=O)[C@H](CCCNC(=N)N)NC(=O)[C@H](CCC(=O)O)NC(=O)[C@@H](NC(=O)[C@H](C)NC(=O)[C@@H]1CCCCNC(=O)C[C@H](NC(=O)[C@H](CCC(=O)O)NC(=O)CC[C@H](NC(=O)CCCCCCCCCCCCCCCCCCC(=O)O)C(=O)O)C(=O)NCC(=O)N[C@@H]([C@@H](C)O)C(=O)N[C@@H](C)C(=O)N[C@@H]([C@@H](C)O)C(=O)N1)[C@@H](C)O [Compound 30, [19CD]-isoGlu-ED()GTATK()ATERLA-Aad-FLQRSSF-Gly(Me)-A-Ile(Me)-PSSTEVGSNT-Hyp-NH2] ({C20 diacid-γGlu}-EDGTATKATERLA[Aad]FLQRSSF[Sar]A[NMeI]PSSTEVGSNT[Hyp]-NH2; lactam 2-7) | 0 | <20 |
